# Experimental data published in patent EP2386552A1, “Process for the preparation of (R) a-lipoic acid salts, their formulation and use in pharmaceutical compositions, in form of tablets containing them” (priority 2010, dated 2011).
# How the values were obtained:
# [1] = pH of 1 % solution in water; format: physicochemical
# Powder apparent density = format: physicochemical; conditions: in g/mL
# From the text: As solvents, 1-4 carbon atom aliphatic alcohols are used, having linear or branched chain, pure or denaturated by usual denaturants, optionally in a mixture with water or among them or with the mother liquors coming from a previous production cycle that used the same raw materials. The use of ketones, like acetone, as such, (Ex.7, 9) or in a mixture with some of the above mentioned alcohols (Ex.11, 12), produces an amorphous precipitate not suitable to be utilized for the direct compression because of the powder very low density. For industrial purpose a powder having low density (<0,2 g/mL) requires an additional operation (compactation / dry granulation / humid granulation) to produce tablets.
# [2] = Release test of tablets (Eur. Ph. 2.9.3, blade stirrer, artificial gastric buffer without pepsin); format: physicochemical; conditions: tablets containing the salt; compared with tablets containing other known salts
# Method: The release test was carried out according to Eur. Ph. 2.9.3 with a blade stirrer (100 rpm) in 1000 mL of artificial gastric buffer without pepsin (Eur. […] The title is carried out by drawing 10 mL of medium, filtering on paper then evaluating the acid content by the spectrophotometer at the wavelength of 330 nm versus standard. The tablet hardness (N) is evaluated by a Schleuninger 6D durometer. The compression force was settled to obtain three intervals of tablet hardness: 40-90 N; 90-120Ne> […]. Table 2 : release of (R) α-lipoic acid tablet
# [3] = Absorption and bioavailability of tablets; format: in vivo; conditions: formulated in tablet; compared with the corresponding tromethamine salt and lipoic acid as a racemate at equivalent doses
SMILES,pH 1 % in water [1],Powder apparent density (Powder apparent density),dissolution profile [2],absorption and bioavailability [3]
"O=C(O)CCCC[C@@H]1CCSS1 [Ex. 1, Trometamol (R) α-lipoate, reference compound]",6.6,0.5-0.7,–,–
"O=C(O)CCCC[C@@H]1CCSS1 [Ex. 6, Cystamine (R) α-lipoate]",6.6,–,dissolution profile better,–
"O=C(O)CCCC[C@@H]1CCSS1 [Ex. 7, Diazobicyclo [2,2,2] octane (R) α-lipoate]",5.2,0.4-0.6,dissolution profile better,–
"O=C(O)CCCC[C@@H]1CCSS1 [Ex. 8, Piperazine (R) α-lipoato (2:1)]",5.5,0.5-0.6,dissolution profile better,better absorption and bioavailability
"O=C(O)CCCC[C@@H]1CCSS1 [Ex. 12, Piperazine (R) α-lipoate (1:1)]",7.2,–,–,–
